Columns and labels:
Test in all cases: relative viability (nuclei count vs DMSO), 5 days (fraction); higher = more cells survive
[1] = compound: CC(C)CCN1c2nc(Nc3cc(F)c(O)c(F)c3)ncc2N(C)C(=O)C1C [BI-D1870] + CC(=O)Nc1cccc(-n2c(=O)n(C3CC3)c(=O)c3c(Nc4ccc(I)cc4F)n(C)c(=O)c(C)c32)c1 [Trametinib] (partner 0.02 µM)
Outline: (§1)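 The day after seeding in 1536-well plates, lung cancer cell lines were treated by pin tool with a single drug, or with a fixed anchor-drug dose together with five library-drug doses (not always all listed) in √10 steps. After 5 days, a combined fix-and-stain solution (final 0.05% Triton X-100, 1% formaldehyde, 1 ug/ml Hoechst) was added. Nuclei counted on 4× images gave relative viability as treated counts over vehicle counts, reported as the median of duplicate plates.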

[2] = compound: CC(C)CCN1c2nc(Nc3cc(F)c(O)c(F)c3)ncc2N(C)C(=O)C1C [BI-D1870] + Cc1nc(Nc2ncc(C(=O)Nc3c(C)cccc3Cl)s2)cc(N2CCN(CCO)CC2)n1 [Dasatinib] (partner 0.075 µM)
Outline: as §1

[3] = compound: O=c1ncccn1[C@@H]1O[C@H](CO)[C@@H](O)[C@H]1O [Zebularine] + CS(=O)(=O)N1CCN(Cc2cc3nc(-c4cccc5[nH]ncc45)nc(N4CCOCC4)c3s2)CC1 [Pictilisib] (partner 1 µM)
Outline: as §1

[4] = compound: O=c1ncccn1[C@@H]1O[C@H](CO)[C@@H](O)[C@H]1O [Zebularine] + COc1cccc2cc(-c3nc([C@H]4CC[C@H](C(=O)O)CC4)n4ncnc(N)c34)[nH]c12 [OSI-027] (partner 0.5 µM)
Outline: as §1

UMC-11
relative viability ([1]; first compound 0.04 µM): 0.701 | relative viability ([1]; first compound 0.1265 µM): 0.682 | relative viability ([1]; first compound 0.4 µM): 0.688 | relative viability ([1]; first compound 1.265 µM): 0.774 | relative viability ([1]; first compound 4 µM): 0.352 | relative viability ([2]; first compound 0.04 µM): 0.579 | relative viability ([2]; first compound 0.1265 µM): 0.454 | relative viability ([2]; first compound 0.4 µM): 0.481 | relative viability ([2]; first compound 1.265 µM): 0.393 | relative viability ([2]; first compound 4 µM): 0.142 | relative viability ([3]; first compound 1 µM): 0.89 | relative viability ([3]; first compound 3.162 µM): 0.451 | relative viability ([3]; first compound 10 µM): 0.467 | relative viability ([3]; first compound 31.62 µM): 0.653 | relative viability ([3]; first compound 100 µM): 0.35 | relative viability ([4]; first compound 1 µM): 0.544 | relative viability ([4]; first compound 3.162 µM): 0.478 | relative viability ([4]; first compound 10 µM): 0.297 | relative viability ([4]; first compound 31.62 µM): 0.473 | relative viability ([4]; first compound 100 µM): 0.407
